According to the supplement of paper PMC10307832:

Legend:
Assay in all cases: relative viability (nuclei count vs DMSO), 5 days (fraction); higher = more cells survive
Shikonin = compound: CC(C)=CC[C@@H](O)C1=CC(=O)c2c(O)ccc(O)c2C1=O [Shikonin]
Method in brief: (§1)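 Viability is treated-well nuclei as a fraction of vehicle-well nuclei, reported as the median across plates. Before counting, lung cancer cell lines were kept overnight at 37 °C in 1536-well plates, pinned with five √10-spaced library-drug doses on vehicle-anchored plates, and left 5 days without medium change, then fixed, permeabilised and Hoechst-stained in one step, imaged at 4× and counted by MetaXpress. A plate passed only if control CV was below 25% and at least one doubling occurred.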

[1] = compound: CC(C)N(CCCNC(=O)Nc1ccc(C(C)(C)C)cc1)C[C@H]1O[C@@H](n2ccc3c(N)ncnc32)[C@H](O)[C@@H]1O
Method in brief: as §1

Shikonin + Decitabine = compound: CC(C)=CC[C@@H](O)C1=CC(=O)c2c(O)ccc(O)c2C1=O [Shikonin] + Nc1ncn([C@H]2C[C@H](O)[C@@H](CO)O2)c(=O)n1 [Decitabine] (partner 2 µM)
Method in brief: (§2)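 Dosing by pin tool came one day after lung cancer cell lines were seeded in 1536-well plates, using either one drug or a fixed anchor-drug dose plus five library-drug doses (not always all listed) in √10 steps. After 5 days, nuclei were counted on 4× images. Relative viability is treated-well nuclei count divided by vehicle-well nuclei count, and values are medians of duplicate plates.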

[2] = compound: CC(C)N(CCCNC(=O)Nc1ccc(C(C)(C)C)cc1)C[C@H]1O[C@@H](n2ccc3c(N)ncnc32)[C@H](O)[C@@H]1O + C[C@]1(O)C[C@@H](c2nc(-c3ccc4ccc(-c5ccccc5)nc4c3)c3c(N)nccn32)C1 [Linsitinib] (partner 1 µM)
Method in brief: as §2

UMC-11
relative viability (Shikonin; 0.01 µM): 0.943
relative viability (Shikonin; 0.1 µM): 0.993
relative viability (Shikonin; 0.3162 µM): 1.07
relative viability (Shikonin; 1 µM): 1.08
relative viability ([1]; 0.08 µM): 0.953
relative viability ([1]; 0.253 µM): 0.875
relative viability ([1]; 0.8 µM): 0.82
relative viability ([1]; 2.53 µM): 0.999
relative viability ([1]; 8 µM): 1.01
relative viability (Shikonin + Decitabine; first compound 0.01 µM): 0.576
relative viability (Shikonin + Decitabine; first compound 0.1 µM): 0.614
relative viability (Shikonin + Decitabine; first compound 0.3162 µM): 0.665
relative viability (Shikonin + Decitabine; first compound 1 µM): 0.74
relative viability ([2]; first compound 0.08 µM): 0.953
relative viability ([2]; first compound 0.253 µM): 0.96
relative viability ([2]; first compound 0.8 µM): 1.07
relative viability ([2]; first compound 2.53 µM): 1.02
relative viability ([2]; first compound 8 µM): 0.889
